The experiment addresses T1, 5-hydroxytryptamine receptor 1A (Homo sapiens, UniProt P08908).
T1 sequence (P08908 whole entry): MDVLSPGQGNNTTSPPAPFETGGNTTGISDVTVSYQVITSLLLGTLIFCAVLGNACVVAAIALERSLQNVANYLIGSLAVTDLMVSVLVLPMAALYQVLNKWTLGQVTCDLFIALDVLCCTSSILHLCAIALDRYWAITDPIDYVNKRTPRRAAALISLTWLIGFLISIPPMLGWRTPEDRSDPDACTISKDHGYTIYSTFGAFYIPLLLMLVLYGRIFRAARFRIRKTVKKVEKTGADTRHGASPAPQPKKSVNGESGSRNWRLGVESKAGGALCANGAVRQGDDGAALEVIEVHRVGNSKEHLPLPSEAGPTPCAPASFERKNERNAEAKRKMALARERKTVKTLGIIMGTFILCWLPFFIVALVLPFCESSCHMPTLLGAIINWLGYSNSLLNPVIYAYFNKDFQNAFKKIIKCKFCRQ
Description: Agonist activity at human 5HT1A receptor expressed in CHOK1 cells incubated for 16 hrs followed by forskolin-stimulation and measured after 2 hrs by dual-glo luciferase reporter gene assay. Type of experiment: cell-based. (In general: A reporter such as luciferase makes a cellular process visible.)

In the case of `CC[C@H]1C[N+]2([O-])CCc3c([nH]c4ccccc34)[C@H]2C[C@@H]1/C(=C\OC)C(=O)OC` (stereo partly drawn), the EC50 (commonly the concentration that produces a half-maximal response) was above 100 µM. The molecule `C=C[C@H]1CN2CCc3c([nH]c4ccccc34)[C@@H]2C[C@@H]1/C(=C\OC)C(=O)OC` registered an EC50 above 100 µM. With `C=C[C@H]1CN2CC[C@]3(O)C(=Nc4ccccc43)[C@H]2C[C@@H]1/C(=C\OC)C(=O)OC`, the EC50 was above 100 µM. Consider `C=C[C@H]1CN2CCc3c([nH]c4ccccc34)[C@H]2C[C@@H]1[C@@H](CO)C(=O)OC`, for which the EC50 is 0.1 µM. With `C=C[C@H]1[C@H](O[C@@H]2O[C@H](CO)[C@@H](O)[C@H](O)[C@H]2O)OC=C2C(=O)N3CCc4c([nH]c5ccccc45)[C@@H]3C[C@H]21`, the EC50 is above 100 µM.

`C=C[C@H]1[C@H](O[C@@H]2O[C@H](CO)[C@@H](O)[C@H](O)[C@H]2O)OC=C2C(=O)N3CCc4c([nH]c5ccccc45)[C@H]3C[C@H]21` registered an EC50 above 100 µM. Molecule `CC[C@H]1C[N@+]2([O-])CCc3c([nH]c4ccccc34)[C@H]2C[C@H]1/C(=C\OC)C(=O)OC` gave an EC50 above 100 µM. `C=C[C@H]1CN2CCc3c([nH]c4ccccc34)[C@H]2C[C@@H]1[C@H](CO)C(=O)OC` displayed an EC50 of 54.4 µM. This counts as double-digit micromolar. For `CC[C@H]1CN2CCc3c([nH]c4ccccc34)[C@H]2C[C@@H]1[C@H](CO)C(=O)OC`, the EC50 is above 100 µM. Turning to `COC(=O)C1=CO[C@@H](O[C@@H]2O[C@H](CO)[C@@H](O)[C@H](O)[C@H]2O)[C@H]2[C@@H]1C[C@H]1c3[nH]c4ccccc4c3CCN1C[C@@H]2O`, the response was half-maximal at 1.6 µM (EC50).

Consider `COC(=O)C1=CO[C@@H](O[C@@H]2O[C@H](CO)[C@@H](O)[C@H](O)[C@H]2O)[C@@H]2[C@@H]3CN4CCc5c([nH]c6ccccc56)[C@]4(C[C@H]12)O3`, for which it took 10.2 µM to reach a half-maximal effect (EC50). The figure for `C=C[C@H]1CN2CC[C@]3(O[C@@H]2C[C@@H]1/C(=C\OC)C(=O)OC)C(=O)Nc1ccccc13` is 10.1 µM; for `C/C=C1\CN2CCc3c([nH]c4ccccc34)[C@H]2C[C@@H]1/C(=C\OC)C(=O)OC` it is above 100 µM.

`C=C[C@H]1C[N@@+]2([O-])CCc3c([nH]c4ccccc34)[C@H]2C[C@@H]1/C(=C\OC)C(=O)OC` yielded an EC50 of 85 µM. `CC[C@H]1CN2CCc3c([nH]c4ccccc34)[C@H]2C[C@H]1/C(=C\OC)C(=O)OC` showed an EC50 above 100 µM. The value for `C=C[C@H]1C[N@@+]2([O-])CCc3c([nH]c4ccccc34)[C@H]2C[C@@H]1[C@@H](CO)C(=O)OC` was above 500 µM.

`C/C=C1/C[N+]2([O-])CCc3c([nH]c4ccccc34)[C@@H]2C[C@@H]1/C(=C\OC)C(=O)OC` (stereo partly drawn): the EC50 was above 100 µM. Turning to `C/C=C1\C[N@@+]2([O-])CCc3c([nH]c4ccccc34)[C@@H]2C[C@@H]1[C@H](CO)C(=O)OC`, the EC50 came out at 11.4 µM. The molecule `CC[C@H]1CN2CCc3c([nH]c4ccccc34)[C@H]2C[C@@H]1[C@@H](CO)C(=O)OC` came in with an EC50 of 2.2 µM. In turn, `C=C[C@H]1CN2CC[C@@]3(C(=O)Nc4ccccc43)[C@@H]2C[C@@H]1/C(=C\OC)C(=O)OC` [ISOCORYNOXEINE] registered an EC50 above 100 µM. The value for `CC[C@H]1CN2CC[C@@]3(C(=O)Nc4ccccc43)[C@@H]2C[C@@H]1/C(=C\OC)C(=O)OC` [ISORHYNCHOPHYLLINE] was 2 µM; that for `CC[C@H]1CN2CC[C@]3(C(=O)Nc4ccccc43)[C@@H]2C[C@@H]1/C(=C\OC)C(=O)OC` [RHYNCHOPHYLLINE] was 10.3 µM; that for `COC(=O)C1=CO[C@@H](C)[C@@H]2CN3CCc4c([nH]c5ccccc45)[C@@H]3C[C@H]12` [TETRAHYDROALSTONINE] was above 100 µM.

The values above are taken from ChEMBL document CHEMBL4414667, “Uncarialins A-I, Monoterpenoid Indole Alkaloids from Uncaria rhynchophylla as Natural Agonists of the 5-HT1A Receptor” (J Nat Prod, 2019).
